Measured values taken from paper PMC12388523, “Flavonoids and Sesquiterpene Lactones from Lychnophora ericoides (Arnica-Do-Cerrado) and Their In Vitro Effects on Multiple Myeloma and Acute Myeloid Leukemia” (Metabolites, 2025).

Assays:
HS-5 cells [1] = assay: Proliferation, [3H]-thymidine uptake, non-malignant HS-5; assay type: cell-based; details: HS5; HS-5 (non-malignant), 72 h, 95% confidence interval in brackets; read-out: IC50 inhibition of proliferation
Method: (§1) Acute myeloid leukemia cell line HL-60 and multiple myeloma cell lines AMO-1 and KMS-12-PE were obtained from the German Collection of Microorganisms and Cell Cultures (DSMZ), Braunschweig, Germany, and non-tumorigenic stromal cell line HS-5 was acquired from the American Type Culture Collection (ATCC, Manassas, VA, USA). All cell lines were cultured in RPMI 1640 medium without phenol red (Pan Biotech, Aidenbach, Germany), supplemented with 2 mM glutamine, 100 U/mL penicillin, 100 µg/mL streptomycin (Sigma-Aldrich, St. Louis, MO, USA), and 10% fetal bovine serum (FBS Maximus, Catus Biotech GmbH, Tutzing, Germany) at 37 °C in a humidified atmosphere of 5% CO2/95% air. Cells were fed twice weekly. Logarithmically growing cells were resuspended at 1 × 10^5 cells/mL, plated in triplicate in round-bottom 96-well plates (100 µL per well; Falcon, Becton Dickinson, Franklin Lakes, NJ, USA), and incubated at 37 °C in 5% CO2/95% air for 2 h. […] Cell proliferation was assessed by [^3H]-thymidine uptake. […] Cells were harvested using a semi-automated device, and [^3H]-thymidine incorporation (expressed in counts per minute, cpm) was measured with a scintillation counter (MicroBeta TriLux, PerkinElmer, Waltham, MA, USA). Metabolic activity was assessed by resazurin staining. […] Relative fluorescence units (RFUs) were measured using a Synergy H1 plate reader equipped with a 560 nm excitation/590 nm emission filter set (BioTek; Agilent, Santa Clara, CA, USA). Proliferation and metabolic activity in the absence of compounds were defined as 100% (control), and the values for compound-treated samples were expressed as percentages relative to the control. Selectivity indices were calculated by dividing the IC50 value of each compound against HS-5 cells through the IC50 values against the investigated cell lines.
(§2) The Wilcoxon Rank Sum Test was used to analyze proliferation and metabolic activity in the absence and presence of varying compound concentrations (NCSS 2007 software, version 07.1.2, Kaysville, UT, USA). […] IC50 values were calculated using GraphPad Prism 10.1.2. […]

HT-29 cells = tested on: HT-29 cells; set-up: method as in PMID 29350920; details: cited from earlier work
MOLM-13 cells = assay: Metabolic activity, resazurin staining, MOLM-13; assay type: cell-based
Method: [The source words this procedure for another cell line and reports this cell line under the same test.] (§3) Acute myeloid leukemia cell line HL-60 and multiple myeloma cell lines AMO-1 and KMS-12-PE were obtained from the German Collection of Microorganisms and Cell Cultures (DSMZ), Braunschweig, Germany, and non-tumorigenic stromal cell line HS-5 was acquired from the American Type Culture Collection (ATCC, Manassas, VA, USA). All cell lines were cultured in RPMI 1640 medium without phenol red (Pan Biotech, Aidenbach, Germany), supplemented with 2 mM glutamine, 100 U/mL penicillin, 100 µg/mL streptomycin (Sigma-Aldrich, St. Louis, MO, USA), and 10% fetal bovine serum (FBS Maximus, Catus Biotech GmbH, Tutzing, Germany) at 37 °C in a humidified atmosphere of 5% CO2/95% air. Cells were fed twice weekly. Logarithmically growing cells were resuspended at 1 × 10^5 cells/mL, plated in triplicate in round-bottom 96-well plates (100 µL per well; Falcon, Becton Dickinson, Franklin Lakes, NJ, USA), and incubated at 37 °C in 5% CO2/95% air for 2 h. Subsequently, the compounds were adjusted in the cell culture medium to reach the final concentrations in a total volume of 150 µL and incubated for an additional 72 h. Cell proliferation was assessed by [^3H]-thymidine uptake. Each well was exposed to 2 µCi [^3H]-thymidine (Hartmann Analytic, Braunschweig, Germany) during the final 12–16 h of incubation. Cells were harvested using a semi-automated device, and [^3H]-thymidine incorporation (expressed in counts per minute, cpm) was measured with a scintillation counter (MicroBeta TriLux, PerkinElmer, Waltham, MA, USA). Metabolic activity was assessed by resazurin staining. Resazurin (Carl Roth, Karlsruhe, Germany) was dissolved in distilled water at a concentration of 0.1 mg/mL, and 15 µL of this solution was added to each well, followed by a 2 h incubation at 37 °C. Relative fluorescence units (RFUs) were measured using a Synergy H1 plate reader equipped with a 560 nm excitation/590 nm emission filter set (BioTek; Agilent, Santa Clara, CA, USA). Proliferation and metabolic activity in the absence of compounds were defined as 100% (control), and the values for compound-treated samples were expressed as percentages relative to the control. Selectivity indices were calculated by dividing the IC50 value of each compound against HS-5 cells through the IC50 values against the investigated cell lines.
(§4) The Wilcoxon Rank Sum Test was used to analyze proliferation and metabolic activity in the absence and presence of varying compound concentrations (NCSS 2007 software, version 07.1.2, Kaysville, UT, USA). A p-value < 0.05 was considered statistically significant. IC50 values were calculated using GraphPad Prism 10.1.2. This software reports 95% confidence intervals instead of standard errors. […] Nonetheless, the figures clearly illustrate the IC50 values due to the narrow concentration range tested.
(§5) Proliferation inhibition often leads to cell death. Therefore, the cytotoxic activity of the compounds was further evaluated using a modified 3-(4,5-dimethylthiazol-2-yl)-2,5-diphenyltetrazolium bromide (MTT) assay, the resazurin (Alamar Blue) assay. Metabolically active cells reduce the non-fluorescent dye resazurin to the fluorescent dye resorufin via mitochondrial reductase activity, which correlates with cell viability. In the first step the metabolic activity of the four isolated flavonoids was investigated, showing a dose-dependent reduction, but to a much lower extent than in the proliferation assays (Table A2). In fact, only 7,3′,4′-trimethoxymyricetin (2) inhibited the metabolic activity of all four cell lines by more than 50% at a concentration of 100 µM.

B16 = tested on: B16; set-up: method as in PMID 15577239; details: cited from earlier work
AMO-1 cells [2] = assay: Proliferation, [3H]-thymidine uptake, AMO-1; assay type: cell-based
Method: as §3, §4

MOLM-13 = tested on: MOLM-13; set-up: method as in PMID 29350920; details: cited from earlier work
KB cell line = tested on: KB cell line; set-up: method as in PMID 17089326; details: cited from earlier work
[3] = tested on: human colon cancer cell line HT-29; set-up: method as in PMID 22685350; details: cited from earlier work
HL-60 cells = assay: Metabolic activity, resazurin staining, HL-60; assay type: cell-based
Method: as §3, §4, §5

HS-5 cells [4] = assay: Metabolic activity, resazurin staining, non-malignant HS-5; assay type: cell-based; details: HS5, HS-5 (non-malignant), 72 h, 95% confidence interval in brackets, read-out: IC50 inhibition of metabolic activity
Method: as §1, §2

[5] = tested on: c-Myb-dependent gene expression; set-up: method as in PMID 23501116; details: read-out: IC50 inhibition of c-Myb-dependent gene expression; cited from earlier work
EOL-1 = tested on: EOL-1; set-up: method as in PMID 29350920; details: cited from earlier work
KMS-12-PE cells = assay: Proliferation, [3H]-thymidine uptake, KMS-12-PE; assay type: cell-based
Method: as §3, §4

AMO-1 cells [6] = assay: Metabolic activity, resazurin staining, AMO-1; assay type: cell-based
Method: as §3, §4, §5

[7] = tested on: HL-60, MOLM-13, AMO-1, and KMS-12 PE cancer cells; assay: Proliferation, range over the four tested cancer cell lines; assay type: cell-based; details: HL-60, MOLM-13, AMO-1, KMS-12 PE; read-out: IC50 inhibition of proliferation, range over cell lines
Method: as §1, with “air.” for “air. Cells were fed twice weekly. Logarithmically growing cells were resuspended at 1 × 10^5 cells/mL, plated in triplicate in round-bottom 96-well plates (100 µL per well; Falcon, Becton Dickinson, Franklin Lakes, NJ, USA), and incubated at 37 °C in 5% CO2/95% air for 2 h.”, “Selectivity indices were calculated by dividing the IC50 value of each compound against HS-5 cells through the IC50 values against the investigated cell lines.” left out

BC cell line = tested on: BC cell line; set-up: method as in PMID 17089326; details: cited from earlier work
NF-κB = tested on: NF-κB; set-up: method as in PMID 25621077; details: HT-29; cited from earlier work

## C=C(C)C(=O)O[C@H]1C[C@@]2(C)OC(=CC2=O)/C(CO)=C\[C@H]2OC(=O)C(=C)[C@H]12 [Compound 5, goyazensolide]
HS-5 cells [1]
  IC50: 2 µM
HT-29 cells
  IC50: 0.56 µM
MOLM-13 cells; Homo sapiens, MOLM-13, 72 h, resazurin, 95% confidence interval in brackets, read-out: IC50 inhibition of metabolic activity
  IC50: 1 µM
MOLM-13 cells; IC50 HS-5 / IC50 MOLM-13
  Selectivity index (metabolic activity): 2.6
B16
  IC50: 2.08 µM
AMO-1 cells [2]; Homo sapiens, AMO1, 72 h, AMO-1, 72 h, 95% confidence interval in brackets, read-out: IC50 inhibition of proliferation
  IC50: 1.6 µM
AMO-1 cells [2]; IC50 HS-5 / IC50 AMO-1
  Selectivity index (proliferation): 1.2
MOLM-13
  IC50: 0.86 µM
KB cell line
  IC50: < 0.3 µM
[3]
  IC50: 0.56 µM
HL-60 cells; Homo sapiens, HL-60, 72 h, resazurin, 95% confidence interval in brackets, read-out: IC50 inhibition of metabolic activity
  IC50: 1.7 µM
HL-60 cells; IC50 HS-5 / IC50 HL-60
  Selectivity index (metabolic activity): 1.5
HS-5 cells [4]
  IC50: 2.6 µM
[5]
  IC50: 0.63 µM
EOL-1
  IC50: 1.1 µM
KMS-12-PE cells; Homo sapiens, KMS-12-PE, 72 h, KMS-12-PE, 72 h, 95% confidence interval in brackets, read-out: IC50 inhibition of proliferation
  IC50: 1.5 µM
KMS-12-PE cells; IC50 HS-5 / IC50 KMS-12-PE
  Selectivity index (proliferation): 1.3
AMO-1 cells [6]; Homo sapiens, AMO1, AMO-1, 72 h, resazurin, 95% confidence interval in brackets, read-out: IC50 inhibition of metabolic activity
  IC50: 2 µM
AMO-1 cells [6]; IC50 HS-5 / IC50 AMO-1
  Selectivity index (metabolic activity): 1.3
[7]
  IC50: 1 to 1.6 µM
BC cell line
  IC50: < 0.3 µM
NF-κB
  NF-κB inhibition (in words): potent NF-κB inhibitor
